Assay results as given in patent publication US10934283B2, “COMT inhibiting methods and compositions” (LIEBER INSTITUTE FOR BRAIN DEVELOPMENT, priority 2015, dated 2021).

Target: T1, catechol-O-methyltransferase (COMT) (Homo sapiens, UniProt P21964)
T1 construct: M51A variant) was expressed in HEK 293F cells
T1 sequence (P21964 52-271 limits assumed): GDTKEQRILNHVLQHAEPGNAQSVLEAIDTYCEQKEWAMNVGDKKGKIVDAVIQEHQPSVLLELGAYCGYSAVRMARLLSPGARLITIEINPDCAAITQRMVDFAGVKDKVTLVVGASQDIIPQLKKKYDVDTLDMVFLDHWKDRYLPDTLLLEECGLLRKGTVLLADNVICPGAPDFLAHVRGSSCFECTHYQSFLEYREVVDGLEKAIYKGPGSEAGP
Assay: COMT inhibition assay (HTRF, production of SAH from SAM)
Format: biochemical
Conditions: table does not say MB-COMT or S-COMT
Procedure: The ability of compounds to inhibit the activity of catechol-O-methyltransferase (COMT) was determined by a homogenous time-resolved fluorescent (HTRF) assay (Lina et al, 2012; kit from CisBio, Codolet, France). This assay measures the production of S-adenosyl homocysteine (SAH) from the methyl donor S-adenosyl methionine. Recombinant human membrane bound COMT (MB-COMT; M51A variant) was expressed in HEK 293F cells using 293Fectin (Life Technologies, Gent, Belgium) and membranes prepared. The membranes were re-suspended in buffer (20 mM Tris/HCl pH 7; 10 mM glycerol; 2 mM MgCl2; 10 mM NaCl), aliquoted and stored at −80° C. Recombinant human soluble COMT(S-COMT), Val158 variant and a hexa-His tag on the N-terminus, was purified using Ni-NTA chromatography, the His tag removed and stored in buffer as above.
For the human MB-COMT assay, membranes (62 ng/well) were incubated with SAM (20 μM final, CisBio) and dopamine (1.5 μM final; Sigma H8502, Diegem, Belgium) in the presence or absence of varying concentrations (typically 10 concentrations ranging from 10 ? M to 0.1 nM) of compound for 40 min at 37° C. in 384-well microtiter plates (10 ? l per well final volume). The reaction was terminated by the addition of acylation buffer and the amount of SAH produced determined according to manufacturer's instructions. Specific inhibition as that inhibited by a high concentration of tolcapone and all experiments were validated using a control curve to tolcapone.
The human S-COMT assay was performed as above except that 0.15 ng enzyme/well was incubated with SAM ([…]) and dopamine (100 μM final) for 15 min at 37° C. and SAH production determined.
HTRF readings were performed using a Perkin Elmer Envision and results expressed as concentration of SAH produced using a standard curve. Results were analyzed using non-linear regression to the 4-parameter logistic equation and pIC50 (−log 10 concentration of drug which inhibits enzyme activity/SAH production by 50%) determined.

CCc1ccc(CN2CCn3cc(O)c(=O)cc3[C@H]2c2ccccc2)cc1 (single isomer, unassigned) [Example 118]
Activity range (pIC50): +++ (three plus signs (+++) is associated with a pIC50 of above about 7)

CCc1ccc(CN2CCn3cc(O)c(=O)cc3[C@@H]2c2ccccc2)cc1 (single isomer, unassigned) [Example 119]
Activity range (pIC50): +++ (three plus signs (+++) is associated with a pIC50 of above about 7)

O=c1cc2n(cc1O)CCN(Cc1ccccc1)C2 [Example 1, 2-benzyl-7-hydroxy-1,2,3,4-tetrahydro-8H-pyrido[1,2-a]pyrazin-8-one]
Activity range (pIC50): ++ (two plus signs (++) is associated with a pIC50 of from about 6 to 7)

O=c1cc2n(cc1O)CCN(Cc1ccc(C(F)(F)F)cc1)C2 [Example 2, 7-hydroxy-2-[4-(trifluoromethyl)benzyl]-1,2,3,4-tetrahydro-8H-pyrido[1,2-a]pyrazin-8-one]
Activity range (pIC50): ++ (two plus signs (++) is associated with a pIC50 of from about 6 to 7)

O=c1cc2n(cc1O)CCN(Cc1ccc(F)cc1)C2 [Example 3, 2-[(4-fluorophenyl)methyl]-7-hydroxy-3,4-dihydro-1H-pyrido[1,2-a]pyrazin-8-one]
Activity range (pIC50): + (a single plus (+) is associated with a pIC50 of from about 4.5 to 6)

O=c1cc2n(cc1O)CCN(CCn1nnc3ccccc31)C2 [Example 4, 2-[2-(benzotriazol-1-yl)ethyl]-7-hydroxy-3,4-dihydro-1H-pyrido[1,2-a]pyrazin-8-one]
Activity range (pIC50): + (a single plus (+) is associated with a pIC50 of from about 4.5 to 6)

O=c1cc2n(cc1O)CCN(CCn1nc3ccccc3n1)C2 [Example 5, 2-[2-(benzotriazol-2-yl)ethyl]-7-hydroxy-3,4-dihydro-1H-pyrido[1,2-a]pyrazin-8-one]
Activity range (pIC50): + (a single plus (+) is associated with a pIC50 of from about 4.5 to 6)

O=c1cc2n(cc1O)CCN(Cc1cccc(OC(F)(F)F)c1)C2 [Example 6, 7-hydroxy-2-[3-(trifluoromethoxy)benzyl]-1,2,3,4-tetrahydro-8H-pyrido[1,2-a]pyrazin-8-one]
Activity range (pIC50): +++ (three plus signs (+++) is associated with a pIC50 of above about 7)

CC(C)(C)c1ccc(CN2CCn3cc(O)c(=O)cc3C2)cc1 [Example 7, 2-(4-tert-butylbenzyl)-7-hydroxy-1,2,3,4-tetrahydro-8H-pyrido[1,2-a]pyrazin-8-one]
Activity range (pIC50): +++ (three plus signs (+++) is associated with a pIC50 of above about 7)

O=c1cc2n(cc1O)CCN(Cc1ccc(OC(F)(F)F)cc1)C2 [Example 8, 7-hydroxy-2-[4-(trifluoromethoxy)benzyl]-1,2,3,4-tetrahydro-8H-pyrido[1,2-a]pyrazin-8-one]
Activity range (pIC50): +++ (three plus signs (+++) is associated with a pIC50 of above about 7)

Cc1ccc(CN2CCn3cc(O)c(=O)cc3C2)c(C)c1 [Example 9, 2-(2,4-dimethylbenzyl)-7-hydroxy-1,2,3,4-tetrahydro-8H-pyrido[1,2-a]pyrazin-8-one]
Activity range (pIC50): +++ (three plus signs (+++) is associated with a pIC50 of above about 7)

CC(C)c1ccc(CN2CCn3cc(O)c(=O)cc3C2)cc1 [Example 10, 7-hydroxy-2-[4-(propan-2-yl)benzyl]-1,2,3,4-tetrahydro-8H-pyrido[1,2-a]pyrazin-8-one]
Activity range (pIC50): +++ (three plus signs (+++) is associated with a pIC50 of above about 7)

O=c1cc2n(cc1O)CCN(Cc1ccccn1)C2 [Example 11, 7-hydroxy-2-(pyridin-2-ylmethyl)-1,2,3,4-tetrahydro-8H-pyrido[1,2-a]pyrazin-8-one]
Activity range (pIC50): ++ (two plus signs (++) is associated with a pIC50 of from about 6 to 7)

O=c1cc2n(cc1O)CCN(Cc1ccc(-c3cccnc3)cc1)C2 [Example 12, 7-hydroxy-2-[4-(pyridin-3-yl)benzyl]-1,2,3,4-tetrahydro-8H-pyrido[1,2-a]pyrazin-8-one]
Activity range (pIC50): ++ (two plus signs (++) is associated with a pIC50 of from about 6 to 7)
